# Measured values as given in patent US11311498B2, “Use of cannabinoids in the treatment of epilepsy” (GW Pharma Limited, priority 2014, dated 2022).
# Legend:
# [1] = tested on: seizures in mice; conditions: after pro-convulsant drugs or an electric current; cited from earlier work
# [2] = tested on: total seizures; assay: Expanded access program: total seizures in all subjects treated; format: in vivo, human; conditions: 12 weeks of treatment, n = 137
# Protocol: (§1) The terms “50% responder” and “50% reduction in seizure” are both terms used in clinical studies. In the present application the terms define the percentage of subjects that experienced a greater than or equal to 50% reduction in the number of seizures during treatment with CBD in comparison to the number experienced during the baseline period before the CBD was administered.
# (§2) Of 137 children and young adults with severe, childhood onset treatment-resistant epilepsy (TRE), forty-two suffered from epilepsy that was characterised by absence seizures. These subjects were tested with a highly purified extract of cannabidiol (CBD) obtained from a cannabis plant. All subjects presented with absence type seizures, often in addition to other generalised and/or focal seizures. The participants in the study were part of an expanded access compassionate use program for CBD.
# (§3) All patients entered a baseline period of 4 weeks when parents/caregivers kept prospective seizure diaries, noting all countable seizure types.
# The patients then received a highly purified CBD extract (greater than 98% CBD w/w) in sesame oil, of known and constant composition, at a dose of 5 mg/kg/day in addition to their baseline anti-epileptic drug (AED) regimen.
# Laboratory testing for hematologic, liver, kidney function, and concomitant AED levels was performed at baseline, and after every 4 weeks of CBD therapy.
# [3] = tested on: absence seizures; assay: Expanded access program: absence seizures in children and young adults with treatment-resistant epilepsy; format: in vivo, human; conditions: 12 weeks of treatment vs 4-week baseline; n = 28; CBD 5 up to 25 mg/kg/day added to baseline AED
# Protocol: as §1, §2
# The epileptic syndromes that these patients suffered from were as follows: Lennox-Gastaut Syndrome; Myoclonic Absence Epilepsy; Tuberous Sclerosis Complex; Dravet Syndrome; Doose Syndrome; Jeavons Syndrome; CDKL5; Dup15q; Neuronal ceroid lipofuscinoses (NCL) and brain abnormalities. […]
# [4] = tested on: seizures; conditions: 200 mg/day pure CBD, cited from earlier work
# [5] = Solubility of the drug substance in water; format: physicochemical
# From the text: Sesame oil was selected as an excipient to solubilize the drug substance.
# [6] = tested on: seizures; conditions: previous studies in animals; multiple species and models; cited from earlier work
# [7] = tested on: seizures; conditions: twelve institutionalized adult patients; 200 mg/day pure CBD; open label; cited from earlier work
# [8] = tested on: myoclonic absence seizures; assay: Expanded access program: myoclonic absence seizures in children and young adults with treatment-resistant epilepsy; format: in vivo, human; conditions: 12 weeks of treatment vs 4-week baseline; head n = 10; CBD 5 up to 25 mg/kg/day added to baseline AED
# Protocol: as §1
# as §2, with “epilepsy (TRE), ten suffered from” for “epilepsy (TRE), forty-two suffered from”, “characterised by myoclonic absence seizures.” for “characterised by absence seizures.”, “presented with myoclonic absence type” for “presented with absence type”
# The epileptic syndromes that these patients suffered from were as follows: Myoclonic Absence Epilepsy; Doose Syndrome; and epilepsy of unknown cause.
# as §3
# The patients then received a highly purified CBD extract (greater than 98% CBD w/w) in sesame oil, of known and constant composition, at a dose of 5 mg/kg/day in addition to their baseline anti-epileptic drug (AED) regimen. […]
# [9] = tested on: seizures; conditions: of eight adult patients with generalized epilepsy; cited from earlier work
# [10] = tested on: seizures; conditions: Consroe et al., 1977; cited from earlier work
SMILES,prevention of seizures [1],"<50% reduction in seizures, total seizures (proportion of patients) [2]","<50% reduction in seizures, absence seizures (proportion of patients) [3]",patients who became seizure free ([4]; of four adult patients),seizure frequency in the remainder of patients ([4]; remaining two of four adult patients),solubility in water [5],anticonvulsant efficacy [6],control of seizures [7],"<50% reduction in seizures, myoclonic absence seizures (proportion of patients) [8]",patients with marked reduction of seizures [9],effect on convulsions [10]
"C=C(C)[C@@H]1CCC(C)=C[C@H]1c1c(O)cc(CCCCC)cc1O [CBD, Cannabidiol]",able to prevent seizures,54% (n = 74),36% (n = 10),two,unchanged,insoluble in water,has anticonvulsant efficacy in multiple species and models,ineffective in controlling seizures,25% (n = 2),4,–
"CCCCCc1cc(O)c2c(c1)OC(C)(C)[C@@H]1CCC(C)=C[C@@H]21 [THC, Tetrahydrocannabinol]",–,–,–,–,–,–,–,–,–,–,pro-convulsant
